{
  "source": "patent US9802962B2",
  "about": "“Tricyclic pyrone compounds reduce amyloid beta aggregates” (priority 2013, dated 2017)",
  "key": {"5×FAD mice": {"test_system": "5×FAD mice", "experiment": "In vivo efficacy in 5×FAD mice", "description": "FIGS. 6A-6E. 2-month-old 5×FAD mice were treated with TP70 or vehicle for 6 weeks as described in the text. Four cortical sections evenly distributed through the cerebrum were taken from one hemisphere of each mouse (6 mice in each treatment group) and fluorescently stained with the amyloid dye FSB (blue) and the nuclear dye propidium iodide (PI, red). A: Representative sections that show the PI stain. B: Representative sections that only show the FSB stain. C: Fluorescent staining was objectively quantified by LSC. […] E: A representative Western blot containing the soluble fractions of three mice of each group was analyzed for soluble Aβ dimer (see ref 59 for the method).\nAlthough the mechanism of neuron loss in Alzheimer's disease (AD) remains elusive, it is associated with cerebral accumulation of Aβ42. The 5×FAD mouse model of amyloid deposition expresses five familial AD (FAD) mutations that are additive in driving Aβ42 overproduction."}, "[1]": {"experiment": "log P by octanol/water partition", "format": "physicochemical"}, "[2]": {"experiment": "Plasma concentration after 7 days of TP70 in drinking water, APP/PS1 mice", "format": "in vivo", "conditions": "after 7 days in drinking water", "description": "The validated SmartCage™ system that enables automated, objective, quantitative and long-term evaluation of neuropsychological endpoints at the animal's home cages (Flores, et al., IEEE Trans Biomed Eng, 2007, 54:225-233; Xiong, et al., Stroke, 2011, 42:2026-2032; Carter, et al., Nat Neurosci, 2010, 13:1526-1533; Khroyan, et al., Clin Exp Pharmacol Physiol, 2012, 39:614-622) was used to complement other special individual learning and memory tests (Shineman, et al., Alzheimers Res Ther, 2011, 3:28; Hamann, et al., Neuropsychologia, 2002, 40:1187-1195; Aultman, et al., Psychopharmacology (Berl), 2001, 153:353-364; Ashe, K H, J Alzheimers Dis, 2006, 9:123-126). The SmartCage was able to reveal the behavioral phenotypes of a mouse stroke model of middle cerebral artery occlusion (MCAO) (Xiong, et al., Stroke, 2011, 42:2026-2032) and a hypocretin/orexin neuron degeneration model (orexin/ataxin-3) (Xie, et al., J Clin Invest, 2008, 118:2471-2481; Aultman, et al., Psychopharmacology (Berl), 2001, 153:353-364; Hara, et al., Neuron 2001, 30:345-354). […] These validated protocols were applied to PK/PD studies on TP70 in one more AD transgenic model, APP/PS1 mice, which express mutant APPs in combination with mutant PS1. […] Homecage activity and locomotion were assessed on Day 7 after the treatment and the blood samples were collected from each mouse after the assessment of general behavior. […]"}, "APP/PS1 mice": {"test_system": "APP/PS1 mice", "experiment": "SmartCage homecage activity and locomotion in APP/PS1 mice", "format": "in vivo", "conditions": "Day 7, TP70 in drinking water, treatment versus control group", "description": "FIGS. 8A-8D. Effects of TP70 on homecage activity and locomotion in homecage monitored using the SmartCage™ system A. Active time in each time block during 24 hours. B. Travel distance in each time block during 24 hours. C. Travel speed in each time block during 24 hours. D. Rearing activity in each time block during 24 hours. The gray shadow indicates dark phase of a 12:12 light/dark cycle.\nThe validated SmartCage™ system that enables automated, objective, quantitative and long-term evaluation of neuropsychological endpoints at the animal's home cages (Flores, et al., IEEE Trans Biomed Eng, 2007, 54:225-233; Xiong, et al., Stroke, 2011, 42:2026-2032; Carter, et al., Nat Neurosci, 2010, 13:1526-1533; Khroyan, et al., Clin Exp Pharmacol Physiol, 2012, 39:614-622) was used to complement other special individual learning and memory tests (Shineman, et al., Alzheimers Res Ther, 2011, 3:28; Hamann, et al., Neuropsychologia, 2002, 40:1187-1195; Aultman, et al., Psychopharmacology (Berl), 2001, 153:353-364; Ashe, K H, J Alzheimers Dis, 2006, 9:123-126). […] Homecage activity and locomotion were assessed on Day 7 after the treatment and the blood samples were collected from each mouse after the assessment of general behavior. […]"}, "MC65 neuroblastoma cells": {"test_system": "MC65 neuroblastoma cells", "experiment": "MC65 protection assay", "format": "cell-based", "description": "Employing medium-throughput cell-based MC65 protection assay to screen over one hundred TP compounds, seven TP compounds that protect MC65 neuroblastoma cells from death caused by intracellular Aβ have been identified. […] The EC50 values for CP2, TP70, and TP101 are 120, 80, and 70 nM, respectively."}, "rat hippocampal slices": {"test_system": "rat hippocampal slices", "experiment": "Long-term potentiation (LTP) in rat hippocampal slices", "format": "cell-based", "description": "FIGS. 2A-2B. Effects of TP70 on rat hippocampal LTP. FIG. 2A. Top panels show superimposed field excitatory post-synaptic potentials (EPSPs) taken from baseline and 45 min following high frequency stimulation (HFS, four 1-s trains of 100 pulses of 0.2 ms delivered at 100 Hz, inter-train interval of 20 s) of the Schaffer collateral-CA1 synapses. FIG. 2B. […] In Control HFS induced LTP. AβO blocked LTP. TP70 (1 μM) restored LTP in the presence of AβO. TP70 alone enhanced LTP.\nWe further investigated effects of TP70 on basal neurotransmission and synaptic plasticity, for example long-term potentiation (LTP) in rat hippocampal slices as previously described (Villeda, et al., Nature, 2011, 477:90-94; Xie, et al., Pflugers Arch, 1994, 427:481-486)."}, "[3]": {"experiment": "Plasma and brain concentrations after i.v. administration in mice", "format": "in vivo", "description": "FIGS. 3A-3B. FIG. 3A. CP2 and TP70 plasma and brain concentrations following i.v. injection in mice (n=3). FIG. 3B. […] The drug concentration was determined using HPLC and mass spectrometry.\nHPLC/mass spectrometry were employed to quantify CP2 and TP70 in the plasma and brain after i.v. administration in mice. The CP2 concentration was 200-300 μM in the mouse brain between 0.5 and 2 h following 25 mg/kg i.v. administration (FIG. 3A). Similarly, TP70 concentration reached 190 μM in plasma at 5 min and 160 μM in brain at 2 h following 25 mg/Kg i.v. administration (FIGS. 3A and 3B)."}},
  "note": "pEC50: −log10 of the molar value. “Also recorded” adds a separate entry of the source.",
  "data": [
    {"compound": "Cc1cc2c(c(=O)o1)C=C1CCC(C(C)CNCc3ccc(O)cc3)CC1O2", "note": "(stereo not drawn) [TP70]", "values": [
      {"measurement": "plaque count (FSB stain), cortical sections", "setting": "5×FAD mice; 2-month-old 5×FAD mice, 6 weeks oral treatment, versus vehicle, LSC", "value": "substantial reduction of plaque count"},
      {"measurement": "nuclear count (PI stain), cortical sections", "setting": "5×FAD mice; 2-month-old 5×FAD mice, 6 weeks treatment, versus vehicle, LSC", "value": "no difference in nuclear count"},
      {"measurement": "cerebral amyloid load", "setting": "5×FAD mice; 5×FAD mice", "value": "substantially reduce"},
      {"measurement": "drug toxicity during the course of treatment", "setting": "5×FAD mice; 5×FAD mice", "value": "no apparent drug toxicity"},
      {"measurement": "histopathology, hematological counts, and blood chemistry at necropsy", "setting": "5×FAD mice; 5×FAD mice", "value": "No abnormalities"},
      {"measurement": "levels of toxic Aβ dimers", "setting": "5×FAD mice; 5×FAD mice", "value": "substantially reduce"},
      {"measurement": "log P", "setting": "[1]", "value": 1.90},
      {"measurement": "plasma TP70 concentration", "setting": "[2]", "value": "1.7 ± 0.5", "unit": "mg/L"},
      {"measurement": "plasma TP70 concentration (equivalent)", "setting": "[2]", "value": 4.3, "unit": "µM"},
      {"measurement": "homecage activity and locomotion", "setting": "APP/PS1 mice", "value": "no significant differences"},
      {"measurement": "concentration required for cell toxicity protection", "setting": "MC65 neuroblastoma cells", "value": "submicromolar"},
      {"measurement": "EC50 values (in words)", "setting": "MC65 neuroblastoma cells; protection of MC65 cells from death caused by intracellular Aβ", "value": "nanomolar range"},
      {"measurement": "pEC50", "setting": "MC65 neuroblastoma cells; protection of MC65 cells from death caused by intracellular Aβ, read-out: effective concentrations for 50% cell survival (EC50)", "value": 7.10},
      {"measurement": "concentration required for enhancing synaptic activity and LTP restoration", "setting": "rat hippocampal slices", "value": "0.1 to 3", "unit": "µM"},
      {"measurement": "LTP in the presence of AβO", "setting": "rat hippocampal slices; 1 μM, perfused 20 min prior to co-application of AβO", "value": "restored LTP; also recorded: restored LTP to the non-AβO-treated level"},
      {"measurement": "basal synaptic activity", "setting": "rat hippocampal slices; compound alone", "value": "without affecting basal synaptic activity"},
      {"measurement": "magnitude of LTP, compound alone", "setting": "rat hippocampal slices; without AβO", "value": "significantly enhanced the magnitude of LTP"},
      {"measurement": "brain concentration", "setting": "[3]; brain at 2 h, 25 mg/Kg i.v.", "value": 160, "unit": "µM"},
      {"measurement": "CNS penetration", "setting": "[3]; i.v., mice", "value": "good CNS penetration"},
      {"measurement": "plasma concentration", "setting": "[3]; plasma at 5 min, 25 mg/Kg i.v.", "value": 190, "unit": "µM"},
      {"measurement": "elimination t½", "setting": "[3]; plasma, i.v., 3-compartment model fit", "value": 2.5, "unit": "h"}
    ]}
  ]
}
